Assay results published in US20090253650A1, “Teat antiseptic prepared from polysaccharide gel with bactericidal and immuno-stimulating activity isolated from durian fruit-rind” (priority 2008, published 2009).

System: peritoneal leukocyte
Assay: Peritoneal leukocyte count in mice after intraperitoneal injection
Type: in vivo
Conditions: 3% thioglycollate (positive control)

## thioglycollate
  Number of Lymphocyte (mean ± S.E.): 0.86 ± 0.14 ×10^6 cell/ml
